Experimental findings from US4981872A, “Prostaglandin derivatives, their preparation and their therapeutic use” (Sankyo Company Limited, priority 1987, dated 1991) are described below.

For assay [1], the system named is ethanol-induced gastric ulcers. Kind of assay: Effects on ethanol-induced gastric ulcers (inhibition of gastric mucosal lesions, oral). The format is in vivo, male rats of the Sprague-Dawley strain. The following applies: p.o., 1 hour before 1 ml absolute ethanol, rat, ID50 of gastric mucosal lesions, read-out: Anti-ulcer activity (ID50, p.o.). Here is the method:
Effects on ethanol-induced qastric ulcers
The test animals used were male rats of the Sprague-Dawley strain each having a body weiqht of about 180-200 g, prior to use in this experiment they were starved for about 42 hours. At the end of this time, each animal was orally administered one of the test compounds shown in the following Table 3. in which the compounds are identified by the number of the foregoing Example in which they were prepared. One hour after administration, gastric mucosal lesions were induced by the oral administration of 1 ml of absolute ethanol. One hour after this administration, the animals were sacrificed with dry ice, and their stomachs were removed and fixed with formalin. The area (mm^2) of the mucosal lesions induced on the gastric mucosa by the ethanol was measured by a video image processor and the inhibition of gastric mucosal lesions by each test compound was calculated in terms of the ID50, by comparison with the results achieved from control animals which had been treated as described above, except that no anti ulcer compound was administered and from the results achieved from the test compounds at various levels of administration.
As a control, there was used the following prior art 6-oxo compound (ORNOPROSTIL): [drawing 12]

The subject of assay [2] is blood platelet aggregation. Kind of assay: Inhibition of blood platelet aggregation in vitro (adenosine diphosphate-induced, Born's method). The format is cell-based, Japanese white rabbit. Particulars: Oryctolagus cuniculus, rabbit PRP/PPP mixture, ADP 5μM. Here is the method:
Inhibition of blood platelet aggregation in vitro
One part by volume of blood from a Japanese white rabbit was mixed immediately after removal with one tenth of its volume of a 3.8% w/v aqueous solution of sodium citrate. The mixture was then centrifuged at 95×G for 15 minutes at room temperature to obtain a platelet-rich plasma (PRP) as the upper layer. The remaining blood sample was then centrifuged for a further 15 minutes at 1000×G to obtain a platelet poor plasma (PPP). By mixing appropriate amounts of the PRP and the PPP, the final platelet count of the mixture was adjusted to 6×105 per μ, platelet aggregation was determined by Born's method [G. V. R. Born: J. Physiol. 62, 67-68 (1962)] by increases in transparency of the test liquid using a platelet aggregometer 25 μl of a solution of the test compound were added to 250 μof the mixture of PRP and PPP and then two minutes after mixing the solutions 25 μl of a liquid containing adenosine diphosphate at a concentration of 5μM were added.
The inhibition of platelet aggregation was assessed by comparing the increase in the amount of light transmitted through the test sample treated platelet-rich plasma with a control platelet-rich plasma which had been treated in the same way, except that the test compound was replaced by physiological saline.

Each structure is given as a SMILES string. Converted amounts (≈) assume the structure as drawn.

The IC50 is the midpoint of a concentration-inhibition curve. Consider `COC(=O)CCC(=O)CCC[C@H]1C(=O)C[C@@H](O)[C@@H]1/C=C/[C@@H](O)COc1ccccc1` [Ex. 30, Methyl 4,9-dioxo-11α,15α-dihydroxy-16-phenoxy17,18,19,20-tetranprprost 13(E)-enoate], for which the ED50 in assay [1] came to 3.7 µg/kg. Moreover, the IC50 in assay [2] was over 10 µg/mL.
As for `COC(=O)CCCC(=O)CC[C@H]1C(=O)C[C@@H](O)[C@@H]1/C=C/[C@@H](O)COc1ccccc1` [Ex. 1, 5-Oxo-16-phenoxy-17,18,19,20-tetranorprostaglandin E1 methyl ester], the ED50 in assay [1] worked out at 2.94 µg/kg. Also, in assay [2], the IC50 was over 10 µg/mL.
The like results for `CCCC[C@H](C)C[C@H](O)/C=C/[C@H]1[C@H](O)CC(=O)[C@@H]1CC(=O)CCCCC(=O)OC` [Control, reference compound] were, in that order, 0.2 µg/kg and 0.0019 µg/mL (≈ 0.00463 µM).
On the same counts, the results for `COC(=O)CCCC(=O)CC[C@H]1C(=O)C[C@@H](O)[C@@H]1/C=C/[C@@H](O)COc1ccc(Cl)cc1` [Ex. 11, 5-Oxo-16-p-chlorophenoxy-17,18,19,20-tetranorprostaglandin E1 methyl ester] are 0.49 µg/kg and over 10 µg/mL.
On the same counts, the results for `CCCCC(C)(C)[C@H](O)/C=C/[C@H]1[C@H](O)CC(=O)[C@@H]1CCCC(=O)CCC(=O)OC` [Ex. 31, Methyl 4,9-dioxo-11α,15α-dihydroxy-16,16-dimethylprost 13(E) enoate] are 4.91 µg/kg and over 10 µg/mL.
